Measurements as given in patent EP4620959A1, “CYCLIC COMPOUNDS USED AS MULTI-TARGET KINASE INHIBITORS AND PREPARATION METHOD THEREFOR” (Shanghai Institute of Organic Chemistry, Chinese Academy of …, priority 2022, dated 2024).

target: LRRK2 wt (Homo sapiens, UniProt Q5S007); experiment: Kinase activity inhibition assay (ADP-Glo), LRRK2 wt; type: biochemical; details: ATP 20 µM
Method: (§1) The kinase activity inhibition assay was performed by ICE Bioscience (Beijing) using ADP-Glo and HTRF methods.
(§2) Table 1.1-1 ADP-Glo Buffer
(§3) Table 1.2-1 ADP-Glo Kinase and Substrate Formulation
(§4) SD is the standard error, and AVE is the average value. Table 2-1 LRRK2 Activity Inhibition Test Results

Sequence of LRRK2 wt (Q5S007 whole entry): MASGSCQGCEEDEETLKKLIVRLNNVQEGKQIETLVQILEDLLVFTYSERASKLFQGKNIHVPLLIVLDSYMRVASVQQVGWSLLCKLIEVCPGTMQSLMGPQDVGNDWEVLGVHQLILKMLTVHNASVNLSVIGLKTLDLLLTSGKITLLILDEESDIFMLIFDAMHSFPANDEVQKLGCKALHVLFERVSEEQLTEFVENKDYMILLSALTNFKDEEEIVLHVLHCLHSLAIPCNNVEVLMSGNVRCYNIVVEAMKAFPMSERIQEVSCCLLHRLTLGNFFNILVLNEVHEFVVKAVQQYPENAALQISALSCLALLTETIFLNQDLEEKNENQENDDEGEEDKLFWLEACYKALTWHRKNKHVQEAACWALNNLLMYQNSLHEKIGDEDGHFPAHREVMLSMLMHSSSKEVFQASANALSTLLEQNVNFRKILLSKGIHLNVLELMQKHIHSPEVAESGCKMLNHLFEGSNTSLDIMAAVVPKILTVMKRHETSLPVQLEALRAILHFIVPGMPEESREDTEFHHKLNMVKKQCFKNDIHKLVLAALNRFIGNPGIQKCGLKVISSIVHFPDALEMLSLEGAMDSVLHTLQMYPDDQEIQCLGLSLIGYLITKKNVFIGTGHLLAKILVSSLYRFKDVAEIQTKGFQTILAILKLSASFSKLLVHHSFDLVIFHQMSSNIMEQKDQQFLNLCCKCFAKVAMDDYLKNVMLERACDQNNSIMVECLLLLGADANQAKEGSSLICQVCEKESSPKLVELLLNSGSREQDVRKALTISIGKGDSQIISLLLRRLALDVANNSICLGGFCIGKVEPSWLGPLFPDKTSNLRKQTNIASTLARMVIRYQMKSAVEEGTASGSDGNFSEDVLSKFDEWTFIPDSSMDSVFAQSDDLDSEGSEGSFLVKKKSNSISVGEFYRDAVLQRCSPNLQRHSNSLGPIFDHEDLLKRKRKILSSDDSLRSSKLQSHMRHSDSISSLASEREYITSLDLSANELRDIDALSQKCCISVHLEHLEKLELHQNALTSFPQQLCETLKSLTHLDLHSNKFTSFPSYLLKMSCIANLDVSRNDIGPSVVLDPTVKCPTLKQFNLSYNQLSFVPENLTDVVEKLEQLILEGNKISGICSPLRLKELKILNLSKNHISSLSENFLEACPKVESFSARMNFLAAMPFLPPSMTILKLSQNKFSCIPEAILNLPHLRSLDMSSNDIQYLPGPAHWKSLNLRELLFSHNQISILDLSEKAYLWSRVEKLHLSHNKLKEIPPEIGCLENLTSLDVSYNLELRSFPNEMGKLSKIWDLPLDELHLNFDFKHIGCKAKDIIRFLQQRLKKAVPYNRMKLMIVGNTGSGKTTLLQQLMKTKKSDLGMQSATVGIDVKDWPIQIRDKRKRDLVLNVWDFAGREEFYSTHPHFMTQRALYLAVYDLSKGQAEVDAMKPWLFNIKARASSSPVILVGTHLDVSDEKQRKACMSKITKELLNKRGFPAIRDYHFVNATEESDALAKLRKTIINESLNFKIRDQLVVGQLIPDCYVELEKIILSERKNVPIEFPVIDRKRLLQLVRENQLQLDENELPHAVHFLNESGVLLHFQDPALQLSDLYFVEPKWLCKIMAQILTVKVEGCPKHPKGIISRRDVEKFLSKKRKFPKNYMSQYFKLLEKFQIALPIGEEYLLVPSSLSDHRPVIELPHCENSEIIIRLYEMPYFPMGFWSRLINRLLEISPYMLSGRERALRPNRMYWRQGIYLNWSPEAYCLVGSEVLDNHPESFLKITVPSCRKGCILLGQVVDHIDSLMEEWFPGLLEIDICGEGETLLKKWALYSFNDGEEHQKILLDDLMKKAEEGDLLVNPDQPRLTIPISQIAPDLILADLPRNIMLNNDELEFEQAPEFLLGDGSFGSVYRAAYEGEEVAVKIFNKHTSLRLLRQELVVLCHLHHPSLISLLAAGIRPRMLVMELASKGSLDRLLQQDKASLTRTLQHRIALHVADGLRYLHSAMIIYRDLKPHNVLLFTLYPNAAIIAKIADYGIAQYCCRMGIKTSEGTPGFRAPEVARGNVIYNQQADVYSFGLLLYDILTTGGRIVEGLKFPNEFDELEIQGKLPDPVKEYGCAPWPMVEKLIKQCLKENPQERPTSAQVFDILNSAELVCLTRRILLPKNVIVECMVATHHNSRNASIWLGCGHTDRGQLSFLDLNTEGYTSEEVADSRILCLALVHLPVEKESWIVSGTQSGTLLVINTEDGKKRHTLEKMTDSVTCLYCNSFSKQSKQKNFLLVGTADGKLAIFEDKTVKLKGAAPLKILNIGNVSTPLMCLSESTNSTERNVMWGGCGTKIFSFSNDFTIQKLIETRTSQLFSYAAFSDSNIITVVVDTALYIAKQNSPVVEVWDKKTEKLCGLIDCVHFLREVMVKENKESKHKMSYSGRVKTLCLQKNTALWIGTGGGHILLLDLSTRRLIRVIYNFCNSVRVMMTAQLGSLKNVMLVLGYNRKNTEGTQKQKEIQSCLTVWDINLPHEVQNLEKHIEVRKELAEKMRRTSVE

Q: Which IC50 does the source give for `CNc1nc(Nc2cn(C(C)(C)C#N)nc2C)ncc1C(F)(F)F` [DNL-201] here?
A: 1.27 nM

same assay, conditions: ATP 20 µM, compound at 100 nM

Q: Which “LRRK2 wt inhibition rate at 100 nM” value does the source give for `Cc1nn2cc1Nc1ncc(C(F)(F)F)c(n1)NC1CCCC(C1)NC(=O)C2(C)C` (stereo not drawn) [Example T-42, (5^3R,E)-1^3,8,8-Trimethyl-3^5-(trifluoromethyl)-1^1H-2,4,6-triaza-3(2,4)-pyrimidina-1(4,1)-pyrazola-5(1,3)-cyclohexacyclooctan-7-one] here?
A: 42.08%@100 nM

same assay, conditions: read-out: LRRK2 wt inhibition rate at 100 nM, ATP 20 µM, compound at 100 nM

Q: For `CN1CCCNc2nc(ncc2C(F)(F)F)Nc2cn(nc2C2CC2)C2CC2C1=O` (racemic) [Example T-10, (1^1R,1^2S,2^1R,E)-2^3-Cyclopropyl-9-methyl-4^5-(trifluoromethyl)-2^1H-3,5,9-triaza-4(2,4)-pyrimidina-2(1,4)-pyrazola-1(1,2)-cyclopropacyclodecan-10-one], which inhibition at 0.1 µM is on record?
A: 94%

Q: How did the inhibition at 0.1 µM turn out when `O=C1NCCCNc2nc(ncc2C(F)(F)F)Nc2cn(nc2C2CC2)C2CC12` (racemic) [Example T-11, (1^1R,1^2R,2^1S,E)-2^3-Cyclopropyl-4^5-(trifluoromethyl)-2^1H-3,5,9-triaza-4(2,4)-pyrimidina-2(1,4)-pyrazola-1(1,2)-cyclopropacyclodecan-10-one] was run?
A: 89%

Q: How did the inhibition at 0.1 µM turn out when `Cc1nn2cc1Nc1ncc3c(Cl)cn(c3n1)CCCNC(=O)C2(C)C` [Example T-6, (E)-1^5-Chloro-3^3,4,4-trimethyl-1^7H,3^1H-2,6-diaza-1(2,7)-pyrrolo[2,3-d]pyrimidine-3(4,1)-pyrazolacyclononan-5-one] was run?
A: 92%

Q: For `CC1(C)C(=O)NCCCc2cc(Cl)c3cnc(nn23)Nc2cn1nc2C1CC1` [Example T-28, (1^1Z,3^4E)-1^5-Chloro-3^3-cyclopropyl-4,4-dimethyl-3^1H-2,6-diaza-1(2,7)-pyrrolo[2,1-f][1,2,4]triazine-3(4,1)-pyrazolacyclononan-5-one], which inhibition at 0.1 µM is on record?
A: 98.3%

Q: For `Cc1nn2cc1Nc1ncc3c(C(F)(F)F)cc(n3n1)CCCNC(=O)C2(C)C` [Example T-29, (1^1Z,3^4E)-3^3,4,4-Trimethyl-1^5-(trifluoromethyl)-3^1H-2,6-diaza-1(2,7)-pyrrolo[2,1-f][1,2,4]triazine-3(4,1)-pyrazolacyclononan-5-one], which inhibition at 0.1 µM is on record?
A: 95.6%

Q: Which inhibition at 0.1 µM does the source give for `Cc1nn2cc1Nc1ncc3c(C#N)cc(n3n1)CCCNC(=O)C2(C)C` [Example T-30, (1^1Z,3^4E)-3^3,4,4-Trimethyl-5-oxo-3^1H-2,6-diaza-1(2,7)-pyrrolo[2,1-f][1,2,4]triazine-3(4,1)-pyrazolacyclononan-1^5-carbonitrile] here?
A: 61.3%

Q: `Cc1nn2cc1Nc1ncc(C(F)(F)F)c(n1)N(C)CCCN(C)C(=O)C2(C)C` [Example T-31, (E)-3^3,4,4,6,10-Pentamethyl-1^5-(trifluoromethyl)-3^1H-2,6,10-triaza-1(2,4)-pyrimidina--3(4,1)-pyrazolacyclodecan-5-one] was tested. Which inhibition at 0.1 µM did it give?
A: 8.85%

Q: How did the inhibition at 0.1 µM turn out when `Cc1nn2cc1Nc1ncc(C(F)(F)F)c(n1)N(C)CCCNC(=O)C2(C)C` [Example T-32, (E)-3^3,4,4,10-Tetramethyl-1^5-(trifluoromethyl)-3^1H-2,6,10-triaza-1(2,4)-pyrimidina-3(4,1)-pyrazolacyclodecan-5-one] was run?
A: 91.6%

Q: Which inhibition at 0.1 µM does the source give for `Cc1nn2cc1Nc1ncc(C(F)(F)F)c(n1)NCCCN(C)C(=O)C2(C)C` [Example T-33, (E)-3^3,4,4,6-Tetramethyl-1^5-(trifluoromethyl)-3^1H-2,6,10-triaza-1(2,4)-pyrimidina-3(4,1)-pyrazolacyclodecan-5-one] here?
A: 2.45%

Q: With `Cc1nn2cc1Nc1ncc(C(F)(F)F)c(n1)NCCCN(C)CC2(C)C` [Example T-34, (E)-3^3,4,4,6-Tetramethyl-1^5-(trifluoromethyl)-3^1H-2,6,10-triaza-1(2,4)-pyrimidina-3(4,1)-pyrazolacyclodecane] as the molecule, how does the inhibition at 0.1 µM read?
A: -12.7%

Q: For `Cc1nn2cc1Nc1ncc(C(F)(F)F)c(n1)NCCn1cc(nn1)CC2(C)C` [Example T-35, (3^4E,6^4Z)-3^3,4,4-Trimethyl-1^5-(trifluoromethyl)-3^1H,6^1H-2,9-diaza-1(2,4)-pyrimidina-6(4,1)-triazole-3(4,1)-pyrazolacyclononane], which inhibition at 0.1 µM is on record?
A: 9.41%

Q: Which inhibition at 0.1 µM does the source give for `Cc1nn2cc1Nc1ncc(C(F)(F)F)c(n1)NCCn1ncc(n1)CC2(C)C` [Example T-36, (3^4E,6^3Z)-3^3,4,4-Trimethyl-1^5-(trifluoromethyl)-3^1H,6^2H-2,9-diaza-1(2,4)-pyrimidina-6(4,2)-triazole-3(4,1)-pyrazolacyclononane] here?
A: 28.9%

Q: `Cc1nn2cc1Nc1ncc(C(F)(F)F)c(n1)NCCCOC(=O)C2(C)C` [Example T-37, (E)-3^3,4,4-Trimethyl-1^5-(trifluoromethyl)-3^1H-6-oxa-2,10-diaza-1(2,4)-pyrimidina-3(4,1)-pyrazolacyclodecan-5-one] was tested. Which inhibition at 0.1 µM did it give?
A: 83.4%

Q: For `Cc1nn2cc1Nc1ncc(C(F)(F)F)c(n1)NCCC(C)NC(=O)C2(C)C` (stereo not drawn) [Example T-38, (E)-3^3,4,4,7-Tetramethyl-1^5-(trifluoromethyl)-3^1H-2,6,10-triaza-1(2,4)-pyrimidina-3(4,1)-pyrazolacyclodecan-5-one], which inhibition at 0.1 µM is on record?
A: 37.7%

Q: For `Cc1nn2cc1Nc1ncc(C(F)(F)F)c(n1)NCCC(C)(C)NC(=O)C2(C)C` [Example T-39, (E)-3^3,4,4,7,7-Pentamethyl-1^5-(trifluoromethyl)-3^1H-2,6,10-triaza-1(2,4)-pyrimidina-3(4,1)-pyrazolacyclodecan-5-one], which inhibition at 0.1 µM is on record?
A: 28.9%

Q: With `Cc1nn2cc1Nc1ncc(C(F)(F)F)c(n1)NC/C=C/CNC(=O)C2(C)C` [Example T-40, (3^4E,8E)-3^3,4,4-Trimethyl-1^5-(trifluoromethyl)-3^1H-2,6,11-triaza-1(2,4)-pyrimidina-3(4,1)-pyrazolylundecapentaene-5-one] as the molecule, how does the inhibition at 0.1 µM read?
A: 56.1%

Q: For `Cc1nn2cc1Nc1ncc(C(F)(F)F)c(n1)N[C@H]1CC[C@H](CC1)NC(=O)C2(C)C` [Example T-41, (5^1s,5^4s,E)-1^3,8,8-Trimethyl-3^5-(trifluoromethyl)-1^1H-2,4,6-triaza-3(2,4)-pyrimidina-1(4,1)-pyrazola-5(1,4)-cyclohexacyclooctan-7-one], which inhibition at 0.1 µM is on record?
A: 20.8%

Q: With `Cc1nn2cc1Nc1ncc(C(F)(F)F)c(n1)NCC(F)(F)COC(=O)C2(C)C` [Example T-43, (E)-8,8-Difluoro-3^3,4,4-trimethyl-1^5-(trifluoromethyl)-3^1H-6-oxa-2,10-diaza-1(2,4)-pyrimidina-3(4,1)-pyrazolacyclodecan-5-one] as the molecule, how does the inhibition at 0.1 µM read?
A: 64.6%

Q: How did the inhibition at 0.1 µM turn out when `Cc1nn2cc1Nc1ncc(C(F)(F)F)c(n1)NCC1(CC1)CNC(=O)C2(C)C` [Example T-44, (E)-3',4',4'-Trimethyl-5'-(trifluoromethyl)spiro[cyclopropane-8'-2,6,10-triaza-1(2,4)-pyrimidina-3(4,1)-pyrazolacyclodecan]-5'-one] was run?
A: 56.8%

Q: For `Cc1nn2cc1Nc1ncc(C(F)(F)F)c(n1)NC(C)(C)CCNC(=O)C2(C)C` [Example T-45, (E)-3^3,4,4,9,9-Pentamethyl-1^5-(trifluoromethyl)-3^1H-2,6,10-triaza-1(2,4)-pyrimidina-3(4,1)-pyrazolacyclodecan-5-one], which inhibition at 0.1 µM is on record?
A: -1.97%

Q: With `Cc1nn2cc1Nc1ncc(C(F)(F)F)c(n1)NC(C)CCNC(=O)C2(C)C` (stereo not drawn) [Example T-46, (E)-3^3,4,4,9-Tetramethyl-1^5-(trifluoromethyl)-3^1H-2,6,10-triaza-1(2,4)-pyrimidina-3(4,1)-pyrazolacyclodecan-5-one] as the molecule, how does the inhibition at 0.1 µM read?
A: 95.1%

target: LRRK2 G2019S (Homo sapiens, UniProt Q5S007, G2019S); experiment: Kinase activity inhibition assay (ADP-Glo), LRRK2 G2019S; type: biochemical; details: ATP 100 µM
Method: as §1, §2, §3, §4

Sequence of LRRK2 G2019S (Q5S007 whole entry G2019S): as the sequence (Q5S007 whole entry) above, with G2019S counted along it

Q: Which IC50 does the source give for `CNc1nc(Nc2cn(C(C)(C)C#N)nc2C)ncc1C(F)(F)F` [DNL-201] here?
A: 2.88 nM

same assay, conditions: read-out: LRRK2 G2019S inhibition rate at 100 nM, ATP 100 µM, compound at 100 nM

Q: How did the inhibition at 0.1 µM turn out when `CN1CCCNc2nc(ncc2C(F)(F)F)Nc2cn(nc2C2CC2)C2CC2C1=O` (racemic) [Example T-10, (1^1R,1^2S,2^1R,E)-2^3-Cyclopropyl-9-methyl-4^5-(trifluoromethyl)-2^1H-3,5,9-triaza-4(2,4)-pyrimidina-2(1,4)-pyrazola-1(1,2)-cyclopropacyclodecan-10-one] was run?
A: 92%

Q: `O=C1NCCCNc2nc(ncc2C(F)(F)F)Nc2cn(nc2C2CC2)C2CC12` (racemic) [Example T-11, (1^1R,1^2R,2^1S,E)-2^3-Cyclopropyl-4^5-(trifluoromethyl)-2^1H-3,5,9-triaza-4(2,4)-pyrimidina-2(1,4)-pyrazola-1(1,2)-cyclopropacyclodecan-10-one] was tested. Which inhibition at 0.1 µM did it give?
A: 90%

Q: `Cc1nn2cc1Nc1ncc3c(Cl)cn(c3n1)CCCNC(=O)C2(C)C` [Example T-6, (E)-1^5-Chloro-3^3,4,4-trimethyl-1^7H,3^1H-2,6-diaza-1(2,7)-pyrrolo[2,3-d]pyrimidine-3(4,1)-pyrazolacyclononan-5-one] was tested. Which inhibition at 0.1 µM did it give?
A: 88%
